From patent publication US11407729B2, “Quinoline and quinazoline compounds and methods of use thereof” (Stingray Therapeutics, Inc., priority 2019, dated 2022) come the findings set out here.

Where a name gives a salt, the structure may show the parent alone.

The assay addresses T1, ENPP1 protein (Homo sapiens, UniProt P22413).
T1 sequence (P22413 1-925): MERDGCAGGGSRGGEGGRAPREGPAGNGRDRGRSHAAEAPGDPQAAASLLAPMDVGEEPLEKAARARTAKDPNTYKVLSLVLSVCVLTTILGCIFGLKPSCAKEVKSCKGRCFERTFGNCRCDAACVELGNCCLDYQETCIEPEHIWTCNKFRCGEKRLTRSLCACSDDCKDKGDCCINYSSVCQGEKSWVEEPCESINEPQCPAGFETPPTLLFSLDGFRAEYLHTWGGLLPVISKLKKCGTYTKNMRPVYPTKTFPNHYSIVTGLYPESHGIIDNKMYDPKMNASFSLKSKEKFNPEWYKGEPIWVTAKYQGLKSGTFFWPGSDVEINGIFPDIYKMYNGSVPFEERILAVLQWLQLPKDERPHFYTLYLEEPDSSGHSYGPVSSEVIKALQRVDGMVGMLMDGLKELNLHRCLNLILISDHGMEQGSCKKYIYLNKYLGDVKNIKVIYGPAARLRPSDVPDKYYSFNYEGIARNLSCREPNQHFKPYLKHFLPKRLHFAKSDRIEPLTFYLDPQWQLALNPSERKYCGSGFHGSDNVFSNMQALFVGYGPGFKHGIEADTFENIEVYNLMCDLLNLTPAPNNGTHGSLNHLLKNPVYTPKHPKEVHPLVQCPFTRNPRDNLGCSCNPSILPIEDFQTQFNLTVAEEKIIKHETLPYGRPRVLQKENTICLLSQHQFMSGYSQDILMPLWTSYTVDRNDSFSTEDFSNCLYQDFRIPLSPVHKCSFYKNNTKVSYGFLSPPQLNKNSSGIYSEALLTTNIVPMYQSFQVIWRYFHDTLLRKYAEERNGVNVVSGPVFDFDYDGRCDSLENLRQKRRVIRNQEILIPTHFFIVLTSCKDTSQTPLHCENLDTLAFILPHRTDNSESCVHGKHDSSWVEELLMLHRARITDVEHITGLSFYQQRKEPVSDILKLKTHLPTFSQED
Briefly: ENPP1 Inhibition Assay. Format: biochemical. The arrangement: purchased R&D 6136-EN-010. The conditions noted are these: substrate Thymidine 5′-monophosphate p-nitrophenol ester; 37° C. for 45 minutes; absorbance at 405 nm. Here is the method:
1. ENPP1 Inhibition Assay
An eight point serial dilution of drugs was prepared in 10× in assay buffer with the final assay concentrations starting at 10 μM, 3 μM, 1 μM, 0.3 μM . . . 0 μM. A dilution of DMSO was included as a control. The assay plate was set up as follows with each well in duplicate: 81 μL assay buffer+10 μL ENPP1 inhibitor or DMSO+5 μL Substrate+4 μL Enzyme. Both the enzyme and substrate were added to opposite sides of the well to ensure that there was no interaction until all wells had both components. The plate was then centrifuged gently for 10 seconds, followed by an incubation at 37° C. for 45 minutes.
IC50 values are determined using GraphPad Prism 5 software. The data were entered as an X-Y plot into the software as percent inhibition for each concentration of the drug. The concentration values of the drug were log transformed and the nonlinear regression was carried out using the “sigmoidal dose-response (variable slope)” option within the GraphPad software to model the data and calculate IC50 values.
As for `COc1cc2ncnc(N3CCC(CCNS(N)(=O)=O)CC3)c2cc1OP(=O)(O)O` [Compound I-03, sodium 7-methoxy-4-(4-(2-(sulfamoylamino)ethyl)piperidin-1-yl)quinazolin-6-yl phosphate], the IC50 (in general, the midpoint of a concentration-inhibition curve) stood at 2870 nM. On to `COc1ccc2c(N3CCC(C(C)CNS(N)(=O)=O)CC3)ccnc2c1` (stereo not drawn) [Compound I-07, N-(2-(1-(7-methoxyquinolin-4-yl)piperidin-4-yl)propyl)aminosulfonamide], for which the IC50 came to 250 nM. `COc1ccc2nccc(N3CCC(C(C)CNS(N)(=O)=O)CC3)c2c1` (stereo not drawn) [Compound I-08, N-(2-(1-(6-methoxyquinolin-4-yl)piperidin-4-yl)propyl)aminosulfonamide]: the midpoint of inhibition, the IC50, lay at 224 nM. As for `COc1cc2nccc(N3CCC(C(C)CNS(N)(=O)=O)CC3)c2cc1O` (stereo not drawn) [Compound I-09, N—(N-(2-(1-(6-hydroxy-7-methoxyquinolin-4-yl)piperidin-4-yl)propyl)sulfuricdiamide formate salt], the figure is 1880 nM; as for `COCCOc1cc2c(N3CCC(C(C)CNS(N)(=O)=O)CC3)ccnc2cc1OC` (stereo not drawn) [Compound I-10, N-(2-(1-(7-methoxy-6-(2-methoxyethoxy)quinolin-4-yl)piperidin-4-yl)propyl)aninosulfonamide formate salt], 156 nM; as for `COc1cc2nccc(N3CCC(C(C)CNS(N)(=O)=O)CC3)c2cc1OCCO` (stereo not drawn) [Compound I-11, N-(2-(1-(6-(2-hydroxyethoxy)-7-methoxyquinolin-4-yl)piperidin-4-yl)propyl)aminosulfonamide formate salt], 4490 nM.

`COc1cc2nccc(N3CCC(C(C)(C)CNS(N)(=O)=O)CC3)c2cc1OC` [Compound I-14, N-(2-(1-(6,7-dimethoxyquinolin-4-yl)piperidin-4-yl)-2-methylpropyl)sulfuricdiamide hydro chloride salt] yielded an IC50 of 35.2 nM. Against the preceding compound, the IC50 is about 130-fold lower.

For the compound `CNS(=O)(=O)NCC(C)C1CCN(c2ccnc3cc(OC)c(OC)cc23)CC1` (stereo not drawn) [Compound I-15, N-(2-(1-(6,7-dimethoxyquinolin-4-yl)piperidin-4-yl)propyl)Methyaminosulfonamide], the midpoint of inhibition, the IC50, lay at 3480 nM. The value for `COc1cc2nccc(N3CCC(C(C)CN(C4CC4)S(N)(=O)=O)CC3)c2cc1OC` (stereo not drawn) [Compound I-16, N-cyclopropyl-N-(2-(1-(6,7-dimethoxyquinolin-4-yl)piperidin-4-yl)propyl)aminosulfonamide formate salt] was 409 nM; that for `COc1cc2nccc(N3CCC(C4CCCN(S(N)(=O)=O)C4)CC3)c2cc1OC` (stereo not drawn) [Compound I-17, 6,7-dimethoxy-4-(1-(aminosulfonyl)-[3,4′-bipiperidin]-1′-yl)quinoline formate salt] was 75.8 nM. With `COc1cc2nccc(N3CCC(C(=O)NC4(C#N)CC4)CC3)c2cc1OC` [Compound I-18, N-(1-cyanocyclopropyl)-1-(6,7-dimethoxyquinolin-4-yl)piperidine-4-carboxamide], the IC50 is above 10000 nM. `COc1cc2nccc(N3CCC(C(C)CNS(C)(=O)=O)CC3)c2cc1OC` (stereo not drawn) [Compound I-19, N-(2-(1-(6,7-dimethoxyquinolin-4-yl)piperidin-4-yl)propyl)methanesulfonamide]: 3810 nM corresponded to half-maximal inhibition (IC50).

For `COc1cc2nccc(N3CCN(C(C)CNS(N)(=O)=O)CC3)c2cc1OC` (stereo not drawn) [Compound I-20, N-(2-(4-(6,7-dimethoxyquinolin-4-yl)piperazin-1-yl)propyl)aminosulfonamide formate salt], the IC50 was determined as 14 nM. As for `COc1cc2nccc(N3CCN(CCNS(N)(=O)=O)[C@H](C)C3)c2cc1OC` [Compound I-21, (R)—N-(2-(4-(6,7-dimethoxyquinolin-4-yl)-2-methylpiperazin-1-yl)ethyl)aminosulfonamide formate salt], the figure is 344 nM. The value for `COc1cc2nccc(N3CCC(C4(CNS(N)(=O)=O)CC4)CC3)c2cc1OC` [Compound I-22] was 9.09 nM; that for `COc1cc2nccc(N3CCC(NS(N)(=O)=O)CC3)c2cc1OC` [Compound I-23, N—(N-(1-(6,7-dimethoxyquinolin-4-yl)piperidin-4-yl)sulfuricdiamide formate salt] was 897 nM. In turn, `COc1cc2nccc(N3CCC(N(C4CC4)S(N)(=O)=O)CC3)c2cc1OC` [Compound I-24, N—(N-cyclopropyl-N-(1-(6,7-dimethoxyquinolin-4-yl)piperidin-4-yl)sulfuricdiamide formate salt] had an IC50 of 953 nM. In turn, `CCC(CNS(N)(=O)=O)C1CCN(c2ncnc3cc(OC)c(OC)cc23)CC1` (stereo not drawn) [Compound I-25, N—(N-(2-(1-(6,7-dimethoxyquinazolin-4-yl)piperidin-4-yl)butyl)sulfuricdiamide formate salt] showed an IC50 of 5.05 nM. In the case of `COc1cc2ncnc(N3CCC(C(C)(C)CNS(N)(=O)=O)CC3)c2cc1OC` [Compound I-26, N-(2-(1-(6,7-dimethoxyquinazolin-4-yl)piperidin-4-yl)-2-methylpropyl)sulfuricdiamide formate salt], the IC50 turned out to be 2.39 nM. The compound `COc1cc2ncnc(N3CCC(C4(CNS(N)(=O)=O)CC4)CC3)c2cc1OC` [Compound I-27, N—(N-((1-(1-(6,7-dimethoxyquinazolin-4-yl)piperidin-4-yl)cyclopropyl)methyl)sulfuricdiamide formate salt] registered an IC50 of 11.5 nM. Compared with the last compound, the IC50 is about 4.8-fold higher. Compound `COCOc1cc2c(N3CCC(C(C)CNS(N)(=O)=O)CC3)ncnc2cc1OC` (stereo not drawn) [Compound I-28] had an IC50 of 26.2 nM. Compared with the last compound, the IC50 is about 2.3-fold higher. In turn, `COc1cc2ncnc(N3CCC(NS(N)(=O)=O)CC3)c2cc1OC` [Compound I-29, N—(N-(1-(6,7-dimethoxyquinazolin-4-yl)piperidin-4-yl)sulfuricdiamide formate salt] showed an IC50 of 420 nM. For the compound `COc1cc2ncnc(N3CCC(N(C4CC4)S(N)(=O)=O)CC3)c2cc1OC` [Compound I-30], the IC50 is 5610 nM. The value for `COc1cc2nccc(N3CCN(C4(CNS(N)(=O)=O)CC4)CC3)c2cc1OC` [Compound I-31, N-((1-(4-(6,7-dimethoxyquinolin-4-yl)piperazin-1-yl)cyclopropyl)methyl)sulfuricdiamide] was 23.7 nM; that for `COc1cc2ncnc(N3CCN(C4(CNS(N)(=O)=O)CC4)CC3)c2cc1OC` [Compound I-32, N-((1-(4-(6,7-dimethoxyquinazolin-4-yl)piperazin-1-yl)cyclopropyl)methyl)sulfuricdiamide] was 55.6 nM; that for `COCOc1cc2c(N3CCN(C4(CNS(N)(=O)=O)CC4)CC3)ncnc2cc1OC` [Compound I-33, N-((1-(4-(7-methoxy-6-(methoxymethoxy)quinazolin-4-yl)piperazin-1-yl)cyclopropyl)methyl)sulfuricdiamide] was 158 nM.

For the compound `COc1cc2ncnc(N3CCN(C4(CNS(N)(=O)=O)CC4)CC3)c2cc1OCF` [Compound I-34, N-((1-(4-(6-(fluoromethoxy)-7-methoxyquinazolin-4-yl)piperazin-1-yl)cyclopropyl)methyl)sulfuricdiamide], 133 nM corresponded to half-maximal inhibition (IC50).

Compound `COCOc1cc2c(N3CCC(C4(CNS(N)(=O)=O)CC4)CC3)ncnc2cc1OC` [Compound I-35, N-((1-(1-(7-methoxy-6-(methoxymethoxy)quinazolin-4-yl)piperidin-4-yl)cyclopropyl)methyl)sulfuricdiamide] had an IC50 of 49.2 nM.

`COCOc1cc2c(N3CCC(C(C)(C)CNS(N)(=O)=O)CC3)ncnc2cc1OC` [Compound I-36, N-(2-(1-(7-methoxy-6-(methoxymethoxy)quinazolin-4-yl)piperidin-4-yl)-2-methylpropyl)sulfuricdiamide] registered an IC50 of 52.6 nM.

As for `COc1cc2nccc(N3CCC(C4(CNS(N)(=O)=O)CC4)CC3)c2cc1OCF` [Compound I-37, N-((1-(1-(6-(fluoromethoxy)-7-methoxyquinolin-4-yl)piperidin-4-yl)cyclopropyl)methyl)sulfuricdiamide], the midpoint of inhibition, the IC50, lay at 1.09 nM.
